Source: ChEMBL document CHEMBL1121862, “Synthesis of 3-hydroxycyclophosphamide and studies related to its possible role in the metabolism of cyclophosphamide” (1981)

Key:
[1] = species on record: Mus musculus; assay: animal or person; details: ip
[2] = species on record: Mus musculus; assay: animal or person; details: ip; remark: listed apart in the source

For `O=P1(N(CCCl)CCCl)NCCCO1` (configuration not stated) [CYCLOPHOSPHAMIDE ANHYDROUS], the ILS at 100 mg/kg [1] was over 100% and the ILS at 200 mg/kg [2] was over 150%.
